Reference: US20230203060A1 (GENFLEET THERAPEUTICS (SHANGHAI) INC., priority 2020, published 2023)
Like-named read-outs stand apart in the source and are kept apart here.

Legend:
[1] = tested on: KRAS G12C mutant NCI-H358 cells; assay: Cell proliferation inhibition experiment, 3D spheroid, CellTiter-Glo, NCI-H358; format: cell-based, human; conditions: Homo sapiens, NCI-H358, 120 h, NCI-H358 (KRAS G12C mutant) 3D spheroid, 5 days with compound, CellTiter-Glo; read-out: H358 IC50
Outline: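 First, H358 (800/well) or A549 (400/well) cells are plated in 2% FBS medium and left overnight to form spheroids. Next, compound is added as a 3.16-fold gradient at 0.1% DMSO for 5 days. Finally, CellTiter-Glo signal is read and IC50 derived by four-parameter fitting.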

[2] = tested on: KRAS G12C mutant MIA PaCa-2 cells; assay: Cell proliferation inhibition experiment, 3D spheroid, CellTiter-Glo, MIA PaCa-2; format: cell-based, human; conditions: 3D cell model in 384-well spheroid plate, 5 days, CellTiter-Glo, read-out: MIA-PaCa2 IC50
Outline: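 Luminescent ATP read-out (CellTiter-Glo) after 5-day compound treatment of spheroids formed overnight from 200 MIA PaCa-2 cells/well; compounds in 3.16-fold series, 0.1% DMSO final. IC50 derived by four-parameter fit of percent inhibition, normalized to DMSO control and medium blank.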

[3] = Homo sapiens, MIA PaCa-2, 120 h

| IC50 [1] [nM] | IC50 [2, 3] [nM] | IC50 [2] [nM] | SMILES |
| --- | --- | --- | --- |
| 4.5 | 6.3 |  | C=CC(=O)N1CCN2C(=O)c3c(N4CCN(CC)C(C)(C)C4)nc(-c4c(O)cccc4F)c(Cl)c3OC[C@H]2C1 [Z322, (6aR)-8-actyloyl-4-chloro-3-(2-fluoro-6-hydroxyphenyl)-1-(4-ethyl-3,3-dimethylpiperazin-1-yl)-6,6a,7,8,9,10-hexahydro-12H-pyrazino[2,1-c]pyrido[3,4-f][1,4]oxazepin-12-one] |
| 3.6 |  | 6 | C=CC(=O)N1CCN2C(=O)c3c(N4CCN(C)C(C)C4C)nc(-c4c(O)cccc4F)c(Cl)c3OC[C@H]2C1 (stereo partly drawn) [Z369, (6aR)-8-acryloyl-4-chloro-3-(2-fluoro-6-hydroxyphenyl)-1-(2,3,4-trimethylpiperazin-1-yl)-6,6a,7,8,9,10-hexahydro-12H-pyrazino[2,1-c]pyrido[3,4-f][1,4]oxazepin-12-one] |
| 10.4 | 18 |  | C=CC(=O)N1CCN2C(=O)c3c(N4CCN(C)C[C@@H]4C)nc(-c4c(O)ccc(Cl)c4F)c(Cl)c3OC[C@H]2C1 [Z343, (6aR)-8-acryloyl-4-chloro-3-(3-chloro-2-fluoro-6-hydroxyphenyl)-1-((S)-2,4-dimethylpiperazin-1-yl)-6,6a,7,8,9,10-hexahydro-12H-pyrazino[2,1-c]pyrido[3,4-f][1,4]oxazepin-12-one] |
| 3 | 4.4 |  | C=CC(=O)N1CCN2C(=O)c3c(N4C[C@H](OC)C[C@@H]4C)nc(-c4c(O)cccc4F)c(Cl)c3OC[C@H]2C1 [Z259a, (6aR)-8-acryloyl-4-chloro-3-(2-fluoro-6-hydroxyphenyl)-1-((2S,4R)-4-methoxy-2-methylpyrrolidin-1-yl)-6,6a,7,8,9,10-hexahydro-12H-pyrazino[2,1-c]pyrido[3,4-f][1,4]oxazepin-12-one] |
| 20 | 29 |  | C=CC(=O)N1CCN2C(=O)c3c(N4CCN(C)C[C@@H]4C)nc(-c4c(F)ccc(F)c4O)c(Cl)c3OC[C@H]2C1 [Z356, (6aR)-8-acryloyl-4-chloro-3-(3,6-difluoro-2-hydroxyphenyl)-1-((S)-2,4-dimethylpiperazin-1-yl)-6,6a,7,8,9,10-hexahydro-12H-pyrazino[2,1-c]pyrido[3,4-f][1,4]oxazepin-12-one] |
| 2.1 | 5 |  | C=CC(=O)N1CCN2C(=O)c3c(N4CC(C#N)CC4(C)C)nc(-c4c(O)cccc4F)c(Cl)c3OC[C@H]2C1 (stereo partly drawn) [Z275, (6aR)-8-acryloyl-1-(4-cyano-2,2-dimethylpyrrolidin-1-yl)-4-chloro-3-(2-fluoro-6-hydroxyphenyl)-6,6a,7,8,9,10-hexahydro-12H-pyrazino[2,1-c]pyrido[3,4-f][1,4]oxazepin-12-one] |
| 11 | 18 |  | C=CC(=O)N1CCN2C(=O)c3c(N4CC(C#N)CC4(C)C)nc(-c4c(O)cccc4F)c(F)c3OC[C@H]2C1 (stereo partly shown) [Z335] |
| 10.6 | 26 |  | C=CC(=O)N1CCN2C(=O)c3c(N4Cc5cn(C)nc5C4(C)C)nc(-c4c(O)cccc4F)c(Cl)c3OC[C@H]2C1 [Z310, (6aR)-8-acryloyl-1-(2,6,6-trimethylpyrrolo[3,4-c]pyrazol-5(2H,4H,6H)-yl)-4-chloro-3-(2-fluoro-6-hydroxyphenyl)-6,6a,7,8,9,10-hexahydro-12H-pyrazino[2,1-c]pyrido[3,4-f][1,4]oxazepin-12-one] |
| 2.4 |  |  | C=CC(=O)N1CCN2C(=O)c3c(N4CC(CO)CC4(C)C)nc(-c4c(O)cccc4F)c(Cl)c3OC[C@H]2C1 (stereo partly drawn) [Z240, (6aR)-8-acryloyl-4-chloro-3-(2-fluoro-6-hydroxyphenyl)-1-(4-(hydroxymethyl)-2,2-dimethylpyrrolidin-1-yl)-6,6a,7,8,9,10-hexahydro-12H-pyrazino[2,1-c]pyrido[3,4-f][1,4]oxazepin-12-one] |

Second part, the molecule before the results:

| SMILES | IC50 [1] [nM] | IC50 [2, 3] [nM] | IC50 [2] [nM] |
| --- | --- | --- | --- |
| C=CC(=O)N1CCN2C(=O)c3c(N4CCC[C@@]4(C)CO)nc(-c4c(O)cccc4F)c(Cl)c3OC[C@H]2C1 [Z279-2] | 3.8 | 4.9 |  |
| C=CC(=O)N1CCN2C(=O)c3c(N4CCO[C@](C)(COC)C4)nc(-c4c(O)cccc4F)c(Cl)c3OC[C@H]2C1 (single isomer, unassigned) [Z332-1] | 16 | 17 |  |
| C=CC(=O)N1CCN2C(=O)c3c(N4CC[C@@H](N(C)C)C4(C)C)nc(-c4c(O)cccc4F)c(Cl)c3OC[C@H]2C1 (single isomer, unassigned) [Z360-1] | 11.8 | 19.6 |  |
| C=CC(=O)N1CCN2C(=O)c3c(N4CC(=O)N(CC)C[C@@H]4C)nc(-c4c(O)cccc4F)c(Cl)c3OC[C@H]2C1 [Z319-1, (6aR)-8-acryloyl-4-chloro-1-((S)-4-ethyl-2-methyl-5-oxopiperazin-1-yl)-3-(2-fluoro-6-hydroxyphenyl)-6,6a,7,8,9,10-hexahydro-12H-pyrazino[2,1-c]pyrido[3,4-f][1,4]oxazepin-12-one] | 2.3 |  |  |
| C=CC(=O)N1CCN2C(=O)c3c(N4CC[C@H](OC)[C@@H]4C)nc(-c4c(O)cccc4F)c(Cl)c3OC[C@H]2C1 [Z347-1, (6aR)-8-acryloyl-4-chloro-3-(2-fluoro-6-hydroxyphenyl)-1-((2S,3S)-3-methoxy-2-methylpyrrolidin-1-yl)-6,6a,7,8,9,10-hexahydro-12H-pyrazino[2,1-c]pyrido[3,4-f][1,4]oxazepin-12-one] | 2.1 | 4 |  |
| C=CC(=O)N1CCN2C(=O)c3c(N4C[C@](C)(O)CC4(C)C)nc(-c4c(O)cccc4F)c(Cl)c3OC[C@H]2C1 (single isomer, unassigned) [Z243-2] | 11.1 | 22.2 |  |
| C=CC(=O)N1CCN2C(=O)c3c(N4C[C@@H](N(C)C)C[C@@H]4C)nc(-c4c(O)cccc4F)c(Cl)c3OC[C@H]2C1 [Z237-2, (6aR)-8-acryloyl-4-chloro-1-((2S,4S)-4-(dimethylamino)-2-methylpyrrolidin-1-yl)-3-(2-fluoro-6-hydroxyphenyl)-6,6a,7,8,9,10-hexahydro-12H-pyrazino[2,1-c]pyrido[3,4-f][1,4]oxazepin-12-one] | 6 | 7.7 |  |
| C=CC(=O)N1CCN2C(=O)c3c(N4C[C@@H](OC)CC4(C)C)nc(-c4c(O)cccc4F)c(F)c3OC[C@H]2C1 (single isomer, unassigned) [Z256a-1] | 3.4 | 11.6 |  |
| C=CC(=O)N1CCN2C(=O)c3c(N4CC[C@H](N(C)C)C4(C)C)nc(-c4c(O)cccc4F)c(Cl)c3OC[C@H]2C1 (single isomer, unassigned) [Z360-2] | 3 | 6 |  |
| C=CC(=O)N1CCN2C(=O)c3c(N4C[C@H](O)[C@H]4C)nc(-c4c(O)cccc4F)c(Cl)c3OC[C@H]2C1 (single isomer, unassigned) [Z102-4] | 15.4 |  |  |
| C=CC(=O)N1CCN2C(=O)c3c(N4CCN(S(C)(=O)=O)C[C@@H]4C)nc(-c4c(O)cccc4F)c(Cl)c3OC[C@H]2C1 [Z318-1, (6aR)-8-acryloyl-1-((S)-2-methyl-4-(methylsulfonyl)piperazin-1-yl)-4-chloro-3-(2-fluoro-6-hydroxyphenyl)-6,6a,7,8,9,10-hexahydro-12H-pyrazino[2,1-c]pyrido[3,4-f][1,4]oxazepin-12-one] | 5.7 | 10.9 |  |
| C=CC(=O)N1CCN2C(=O)c3c(N4CC[C@H](OC)C4(C)C)nc(-c4c(O)cccc4F)c(F)c3OC[C@H]2C1 (single isomer, unassigned) [Z327-2] | 8.4 | 16.2 |  |
| C=CC(=O)N1CCN2C(=O)c3c(N4CCN(C)[C@H](C)[C@@H]4C)nc(-c4c(O)cccc4F)c(Cl)c3OC[C@H]2C1 (single isomer, unassigned) [Z308a-1] | 7.1 | 7.8 |  |
| C=CC(=O)N1CCN2C(=O)c3c(N4CC(O)CC4(C)C)nc(-c4c(O)cccc4F)c(C)c3OC[C@H]2C1 (single isomer, unassigned) [Z336-2] | 5 |  |  |
| C=CC(=O)N1CCN2C(=O)c3c(N4CC[C@H](OC)C4(C)C)nc(-c4c(O)cccc4F)c(Cl)c3OC[C@H]2C1 (single isomer, unassigned) [Z241a-1] | 1.4 | 4.3 |  |
| C=CC(=O)N1CCN2C(=O)c3c(N4Cc5cn(C)nc5C4C)nc(-c4c(O)cccc4F)c(Cl)c3OC[C@H]2C1 (stereo partly shown) [Z291-2] | 3.5 | 7 |  |
| C=CC(=O)N1CCN2C(=O)c3c(N4C[C@@H](O)CC4(C)C)nc(-c4c(O)cccc4F)c(F)c3OC[C@H]2C1 (single isomer, unassigned) [Z256-1] | 2.2 | 5 |  |
| C=CC(=O)N1CCN2C(=O)c3c(N4CCN(C(C)=O)C[C@@H]4C)nc(-c4c(O)cccc4F)c(Cl)c3OC[C@H]2C1 [Z313-1] | 1.6 | 2.6 |  |
| C=CC(=O)N1CCN2C(=O)c3c(N4CCN(C5CC5)C[C@@H]4C)nc(-c4c(O)cccc4F)c(Cl)c3OC[C@H]2C1 [Z312-1, (6aR)-8-acryloyl-4-chloro-1-((S)-4-cyclopropyl-2-methylpiperazin-1-yl)-3-(2-fluoro-6-hydroxyphenyl)-6,6a,7,8,9,10-hexahydro-12H-pyrazino[2,1-c]pyrido[3,4-f][1,4]oxazepin-12-one] | 13.5 |  |  |
| C=CC(=O)N1CCN2C(=O)c3c(N4C[C@H](N(C)C)C[C@@H]4C)nc(-c4c(O)cccc4F)c(Cl)c3OC[C@H]2C1 [Z237-1, (6aR)-8-acryloyl-4-chloro-1-((2S,4R)-4-(dimethylamino)-2-methylpyrrolidin-1-yl)-3-(2-fluoro-6-hydroxyphenyl)-6,6a,7,8,9,10-hexahydro-12H-pyrazino[2,1-c]pyrido[3,4-f][1,4]oxazepin-12-one] | 14.6 |  |  |
